Reference: US5324747A, “N-substituted anilines, inhibitors of phospholipases A2” (Hoffmann-La Roche Inc., priority 1992, dated 1994)

Experiments:
[1] = target: T1, HSF-PLA2 (Homo sapiens, UniProt P14555); experiment: Assay for Inhibition of HSF-PLA2 In Vitro; assay type: biochemical; settings: read-out: Inhib of HSF-PLA2 IC50
T1 construct: extracellular enzyme obtained from human synovial fluid (HSF-PLA2); from tissue; host or cells: pooled human synovial fluid, added at 0.1% (v/v)
T1 sequence (P14555 21-144): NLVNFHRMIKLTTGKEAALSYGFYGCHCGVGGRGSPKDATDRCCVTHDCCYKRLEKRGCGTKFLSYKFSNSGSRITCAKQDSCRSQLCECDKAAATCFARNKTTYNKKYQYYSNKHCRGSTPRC
In short: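 Extracellular PLA2 isolated from human synovial fluid, incubated 30 min at 37 °C with 14C-labelled phospholipid substrate in duplicate. Lipids were chloroform-extracted, and released 14C-oleic acid was separated from substrate by silica TLC; a no-enzyme control was run in each experiment.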

[2] = tested on: PLA2 Rat Paw Edema; experiment: Phospholipase A2 Rat Paw Edema; assay type: in vivo, Lewis rats
In short: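 Lewis rats (~200 g, n=7) dosed i.p. (in DMSO) or orally (in Labrafil M-1944CS) 1 h before subplantar injection of 5 ug Naja naja PLA2 into right hind paw. Paw volume by plethysmometry at 0.5, 2 and 4 hr minus baseline; % change versus vehicle, Student's t-test.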

[3] = tested on: Croton Oil Mouse Ear Edema; experiment: Croton Oil Mouse Ear Edema Test; assay type: in vivo, CD-1 mice; settings: topical, coapplied, 6 hours
[4] = tested on: Naja naja snake venom PLA2 (SV-PLA2); experiment: Assay for inhibition of snake venom PLA2 (SV-PLA2) in vitro; assay type: biochemical; settings: read-out: Inhib of SV-PLA2 IC50
Experimental: ASSAY FOR INHIBITION OF SNAKE VENOM PLA2 (SV-PLA2) IN VITRO
Several representative compounds of the invention were also tested as inhibitors of Naja naja snake venom PLA2 (SV-PLA2). The assay employed in this study was the spectrophotometric method described by: C. Vigo, G. P. Lewis and P. J. Piper in Biochemical Pharmacology, 29:623-627 (1983), which was modified as described by: A. F. Welton, L. D. Tobias, C. Fiedler-Nagy, W. Anderson, W. Hope, K. Meyers and J. W. Coffey in "Plant Flavonoids in Biology and Medicine: Biochemical, Pharmacological and Structure-Activity Relationships", p 231-242, (1986) Alan R. Liss, Inc. The PLA2 paw edema model, (data in Table I) is initiated by injection of SV-PLA2.

[5] = tested on: Acetic Acid-Induced Colitis in Rats; experiment: Acetic Acid-Induced Colitis in Rats; assay type: in vivo, rats (Sprague-Dawley)
Excerpt: Acetic Acid-Induced Colitis in Rats The rat acetic acid-induced colitis bioassay has been described by J. E. Krawisz, et al. in Amer. J. Proc. Gastro. Col. Rec. Surg. 31: 11-18 (1980), and by P. Sharon and W. F. Stenson in Gastroenterology 88: 55-63 (1985) and 86:453-460 (1984). Acetic acid-induced colitis is characterized by the movement of inflammatory cells into the colon, with the number of such cells in the mucosa being measured by the activity of myeloperoxidase, a marker enzyme for these cells. Positive desirable activity is indicated by a reduction in the high levels of myeloperoxidase caused by acetic acid. […] The animals were administered a second dose of the test compound in the same amount about 16 hours later. Then 24 hours after the acetic acid treatment, the animals were sacrificed. The colonic mucosa was surgically removed and homogenized in an aqueous buffer at pH 6 with a Tissumizer or similar device and myeloperoxidase was measured in the homogenate using o-phenylenediamine as a cromagen, as described by […] and A. Bartlett in "The Enzyme Linked Immunosorbent Assay (ELISA)", Zoological Soc., London, 1979, pages 29-30. Control animals were pretreated with the vehicle and saline in place of acetic acid.

[6] = tested on: mouse skin; settings: cited from earlier work

SMILES | IC50 [1] [nM] | inhibition in vivo at 30 mg/kg ([2]; Rattus norvegicus, 2 hr, 30 mg/kg, read-out: % Inhib of PLA2 Rat Paw Edema 2 hr (30 mg/kg)) [%] | % Inhib of Croton Oil Mouse Ear Edema (1 mg) [3] [%] | IC50 [4] [nM] | % Inhibition of Myeloperoxidase Accumulation at 10 mg/kg po [5] [%] | % Inhib of PLA2 Rat Paw Edema 2 hr ([2]; (50 mg/kg)) [%] | TPA-mediated increase in epidermal PGE2 levels [6] | TPA-mediated induction of epidermal cell ornithine decarboxylase [6]
CCCCCCCCCCNC(=O)c1cc(C(=O)NCCCCCCCCCC)cc(N(CC(=O)O)CC(=O)O)c1 [Example 16, N-(Carboxymethyl)-N-[3,5-bis[(decylamino)carbonyl]phenyl]glycine] | 300 | 0 | 10 | 50 | 212 ± 124 | – | – | –
CCCCCCCCCCCCCCCCCCOc1cccc(N(CC(=O)O)CC(=O)O)c1 [Example 36, N -(Carboxymethyl)-N-[3-(octadecyloxy)phenyl]glycine] | 170 | – | 21 | – | 190 ± 76 | – | – | –
CCCCCCCCCCCCCCOc1cc(OCCCCCCCCCCCCCC)cc(N(CC(=O)O)CC(=O)O)c1 [Example 6e, N-(carboxymethyl)-N-[3,5-bis(tetradecyloxy)phenyl]glycine] | 130 | – | – | – | 145 ± 72 | 44 | – | –
COc1ccc2c(c1)c(CC(=O)O)c(C)n2C(=O)c1ccc(Cl)cc1 [Indomethacin] | – | – | – | – | – | – | prevented | prevented
